Here are results for seven compounds from paper PMC6628435, “Chemical Synthesis, Proper Folding, Nav Channel Selectivity Profile and Analgesic Properties of the Spider Peptide Phlotoxin 1” (Toxins, 2019).

Molecules are shown by their SMILES. Bridge positions count the residues as written; N and C are the ends. Peptide text beside a SMILES is read from it.

Assay [1] has as its target T1, human Nav1.7 (Homo sapiens, UniProt Q15858).
T1 construct: expressed in transfected cells
Briefly: Automated patch-clamp (Nanion SyncroPatch 384PE) on CHO cells expressing human Nav1.7. Type of assay: cell-based. The settings on record: for block of Nav1.7 inward current: 100 nM toxin, end of application (about 12-13 min), CHO hNav1.7; for Hill value: same dose-response fit as IC50, CHO hNav1.7 automated patch-clamp. From the text:
We used a CHO mammalian cell line expressing the human Nav1.7 instead of Xenopus oocytes for the pharmacological evaluation. […] 100-ms pulses from −100 mV to −10 mV were applied at a frequency of 0.2 Hz and various concentrations of PhlTx1 were applied to the cells. […] Using a manual patch clamp, which is better suited to investigate current recovery from block than an automated patch clamp that requires several washing steps, we investigated the reversibility properties of a PhlTx1 block.
CHO cells stably expressing the human Nav1.7 cells were cultured in Dulbecco’s Modified Eagle’s Medium (DMEM) supplemented with 10% fetal calf serum, 1 mM pyruvic acid, 4 mM glutamine, 10 IU/mL penicillin and 10 μg/mL streptomycin (Gibco, Grand Island, NY, USA), and incubated at 37 °C in a 5% CO2 atmosphere. For automated patch-clamp recordings, cells were detached with trypsin and floating single cells were diluted (~300,000 cells/mL) in medium contained (in mM): 4 KCl, 140 NaCl, 5 Glucose, 10 HEPES (pH 7.4, osmolarity 290 mOsm).
Chips with single-hole and high-resistance (~6–7 MΩ) were used for CHO cell recordings. Voltage pulses and whole-cell recordings were achieved using the PatchControl384 v1.5.2 software (Nanion, Munich, Germany) and the Biomek v1.0 interface (Beckman Coulter). Prior recordings, dissociated cells were shaken at 60 RPM in a cell hotel reservoir at 10 °C. After cell catching, sealing, whole-cell formation, liquid application, recording, and data acquisition were all performed sequentially and automatically. […] Whole-cell experiments were done at −100 mV holding potential and at room temperature (18–22 °C), while currents triggered at −10 mV test potential were sampled at 20 kHz. Stimulation frequency was set at 0.2 Hz. Toxins were prepared at various concentrations in the extracellular solution, itself supplemented with 0.3% BSA. […] Compound solutions were diluted 3 times in the patch-clamp recording well by adding 30 μL to 60 μL external solution to reach the final reported concentration and the test volume of 90 μL. Percentages of current inhibitions were measured at the end of a 12- to 15-min application time (12-min for fast blocking toxins; 15-min for slow blocking ones). A single concentration of peptide was tested on each cell for building the full-inhibition curves.

In assay [2] the test system is human Nav1.7 channel. Conditions: ref [45]; cited from earlier work.
In assay [3] the test system is formalin-induced spontaneous pain behavior. Briefly: Formalin pain test in mice after intrathecal injection. It is filed as in vivo, C57BL/6J mice. Conditions: mouse, in vivo.

T1 sequence (Q15858 whole entry): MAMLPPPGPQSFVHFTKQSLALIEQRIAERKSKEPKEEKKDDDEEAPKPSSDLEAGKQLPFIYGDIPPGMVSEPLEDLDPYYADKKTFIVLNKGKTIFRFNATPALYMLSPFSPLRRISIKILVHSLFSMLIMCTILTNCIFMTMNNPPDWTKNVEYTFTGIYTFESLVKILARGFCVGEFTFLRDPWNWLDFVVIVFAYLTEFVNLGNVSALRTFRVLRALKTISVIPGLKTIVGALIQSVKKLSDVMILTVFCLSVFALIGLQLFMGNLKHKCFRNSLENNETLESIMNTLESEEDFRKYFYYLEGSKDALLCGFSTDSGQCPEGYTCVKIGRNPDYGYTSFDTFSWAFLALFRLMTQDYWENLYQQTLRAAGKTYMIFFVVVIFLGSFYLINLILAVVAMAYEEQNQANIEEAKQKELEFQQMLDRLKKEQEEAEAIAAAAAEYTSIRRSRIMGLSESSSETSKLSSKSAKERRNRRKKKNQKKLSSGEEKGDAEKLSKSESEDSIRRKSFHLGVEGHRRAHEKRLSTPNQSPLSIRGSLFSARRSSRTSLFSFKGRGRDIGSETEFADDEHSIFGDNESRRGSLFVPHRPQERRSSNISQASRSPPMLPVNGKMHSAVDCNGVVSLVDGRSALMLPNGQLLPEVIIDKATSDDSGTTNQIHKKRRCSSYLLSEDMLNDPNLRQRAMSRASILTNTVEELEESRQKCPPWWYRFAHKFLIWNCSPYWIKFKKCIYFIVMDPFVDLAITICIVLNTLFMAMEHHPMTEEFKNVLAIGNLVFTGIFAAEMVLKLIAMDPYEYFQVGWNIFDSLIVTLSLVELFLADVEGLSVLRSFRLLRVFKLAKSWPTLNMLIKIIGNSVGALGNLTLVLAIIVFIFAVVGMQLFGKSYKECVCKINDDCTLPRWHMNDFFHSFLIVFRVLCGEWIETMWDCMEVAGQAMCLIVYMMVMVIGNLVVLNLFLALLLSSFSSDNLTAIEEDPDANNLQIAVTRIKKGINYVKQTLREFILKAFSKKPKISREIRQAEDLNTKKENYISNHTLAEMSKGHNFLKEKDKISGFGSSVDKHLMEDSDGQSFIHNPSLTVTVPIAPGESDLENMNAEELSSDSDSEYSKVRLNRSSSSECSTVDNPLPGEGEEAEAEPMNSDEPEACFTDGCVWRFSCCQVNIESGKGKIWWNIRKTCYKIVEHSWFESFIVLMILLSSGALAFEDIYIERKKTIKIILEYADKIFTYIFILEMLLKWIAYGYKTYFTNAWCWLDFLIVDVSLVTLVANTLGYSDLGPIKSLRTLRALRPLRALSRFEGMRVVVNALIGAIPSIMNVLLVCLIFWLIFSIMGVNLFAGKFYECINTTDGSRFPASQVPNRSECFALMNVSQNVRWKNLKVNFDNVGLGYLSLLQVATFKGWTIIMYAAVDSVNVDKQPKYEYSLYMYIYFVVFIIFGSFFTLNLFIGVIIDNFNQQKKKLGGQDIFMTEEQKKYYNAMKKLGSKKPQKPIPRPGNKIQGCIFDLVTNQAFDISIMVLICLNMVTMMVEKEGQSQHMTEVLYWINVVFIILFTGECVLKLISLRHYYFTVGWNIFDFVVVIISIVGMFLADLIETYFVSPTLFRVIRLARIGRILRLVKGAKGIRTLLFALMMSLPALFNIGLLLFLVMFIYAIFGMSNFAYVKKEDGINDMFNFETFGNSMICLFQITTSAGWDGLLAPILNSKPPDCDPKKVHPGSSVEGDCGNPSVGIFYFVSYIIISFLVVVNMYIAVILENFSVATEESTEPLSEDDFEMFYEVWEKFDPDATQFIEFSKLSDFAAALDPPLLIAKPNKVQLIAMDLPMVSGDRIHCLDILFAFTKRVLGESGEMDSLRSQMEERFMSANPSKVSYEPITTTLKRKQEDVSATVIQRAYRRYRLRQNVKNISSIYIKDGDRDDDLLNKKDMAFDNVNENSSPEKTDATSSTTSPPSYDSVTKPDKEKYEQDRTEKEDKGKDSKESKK

Consider `CC[C@H](C)[C@@H]1NC(=O)[C@H](CC(N)=O)NC(=O)[C@H](CCCNC(=N)N)NC(=O)[C@@H]2CCCN2C(=O)[C@H](Cc2c[nH]c3ccccc23)NC(=O)[C@H](CCCCN)NC(=O)[C@H](CO)NC(=O)[C@H](CCCCN)NC(=O)[C@@H]2CSSC[C@@H]3NC(=O)[C@H](CCCCN)NC(=O)CNC(=O)[C@H](Cc4c[nH]c5ccccc45)NC(=O)[C@H](Cc4ccccc4)NC(=O)[C@H](CCCNC(=N)N)NC(=O)[C@H](C(C)C)NC(=O)[C@@H](NC(=O)[C@@H](N)CC(=O)O)CSSC[C@H](NC(=O)[C@H](CSSC[C@@H](C(=O)N[C@H](C(=O)N[C@@H](Cc4c[nH]c5ccccc45)C(=O)N[C@@H](CC(=O)O)C(=O)NCC(=O)N[C@@H](CO)C(=O)N[C@H](C(=O)O)C(C)C)C(C)C)NC1=O)NC(=O)[C@H](CC(=O)O)NC(=O)[C@H](CO)NC(=O)[C@H]([C@@H](C)O)NC(=O)[C@H](CCC(N)=O)NC(=O)[C@H](CO)NC3=O)C(=O)N1CCC[C@H]1C(=O)N[C@@H](Cc1c[nH]cn1)C(=O)N[C@@H](CC(C)C)C(=O)N[C@@H](C)C(=O)N2` [GrTx1], for which, in assay [1], half-maximal inhibition (IC50) required 15.3 nM and the “block of Nav1.7 inward current” value is recorded as “about 50%”.

`CC[C@H](C)[C@H](NC(=O)[C@H](CCCCN)NC(=O)[C@H](CCCCN)NC(=O)[C@H](CCCCN)NC(=O)[C@@H]1CSSC[C@@H]2NC(=O)[C@H](CCCCN)NC(=O)[C@H](CCCNC(=N)N)NC(=O)[C@H](CCC(=O)O)NC(=O)[C@H](CCC(=O)O)NC(=O)[C@H](CC(=O)O)NC(=O)[C@@H]3CSSC[C@H](NC(=O)[C@H](C(C)C)NC(=O)[C@H](CC(C)C)NC(=O)CNC(=O)[C@H](CCC(=O)O)NC(=O)[C@H](CSSC[C@H](NC(=O)[C@@H](N)Cc4ccc(O)cc4)C(=O)N[C@@H](CCC(N)=O)C(=O)N[C@@H](CCCCN)C(=O)N[C@@H](Cc4c[nH]c5ccccc45)C(=O)N[C@@H](CCSC)C(=O)N[C@@H](Cc4c[nH]c5ccccc45)C(=O)N[C@@H]([C@@H](C)O)C(=O)N3)NC2=O)C(=O)N[C@@H](CCCNC(=N)N)C(=O)N[C@@H](CC(C)C)C(=O)N[C@@H](Cc2c[nH]c3ccccc23)C(=O)N1)C(=O)N[C@@H](CCC(=O)O)C(=O)N[C@@H](Cc1c[nH]c2ccccc12)C(=O)O` [GsAFII] (H-YCQKWMWTCDEERKCCEGLVCRLWCKKKIEW-OH; disulfide 2-16, 9-21, 15-25) displayed a half-maximal inhibitory concentration (IC50) in assay [1] of 13.6 nM.

`CC[C@H](C)[C@H](NC(=O)[C@H](CCC(=O)O)NC(=O)[C@H](Cc1ccc(O)cc1)NC(=O)[C@H](CCCCN)NC(=O)[C@@H]1CSSC[C@@H]2NC(=O)[C@H](CCC(N)=O)NC(=O)[C@H](CC(=O)O)NC(=O)[C@H](CC(N)=O)NC(=O)[C@H](CO)NC(=O)[C@@H]3CCCN3C(=O)[C@H](CC(N)=O)NC(=O)[C@@H]3CSSC[C@H](NC(=O)[C@H](C(C)C)NC(=O)[C@H](CC(C)C)NC(=O)[C@H](CC(N)=O)NC(=O)[C@H](CO)NC(=O)[C@H](CO)NC(=O)[C@H](CCCCN)NC(=O)[C@H](CSSC[C@H](NC(=O)[C@@H](N)CCC(=O)O)C(=O)N[C@@H](CC(C)C)C(=O)NCC(=O)N[C@@H](Cc4ccccc4)C(=O)NCC(=O)N[C@@H](CCCCN)C(=O)NCC(=O)N3)NC2=O)C(=O)N[C@@H](CO)C(=O)N[C@@H](CCCNC(=N)N)C(=O)N[C@@H](CCCCN)C(=O)N[C@@H](Cc2c[nH]cn2)C(=O)N[C@@H](CCCNC(=N)N)C(=O)N[C@@H](Cc2c[nH]c3ccccc23)C(=O)N1)C(N)=O` [HnTx-IV] came in with an IC50 in assay [1] of 4.3 nM.

On to `CC(C)C[C@H](NC(=O)[C@H](CCCCN)NC(=O)[C@H](Cc1c[nH]c2ccccc12)NC(=O)[C@H](CCCCN)NC(=O)[C@@H]1CSSC[C@@H]2NC(=O)[C@H](CCC(=O)O)NC(=O)[C@H](CC(N)=O)NC(=O)[C@H](CCCCN)NC(=O)CNC(=O)[C@@H]3CCCN3C(=O)[C@H]([C@@H](C)O)NC(=O)[C@@H]3CSSC[C@H](NC(=O)[C@H](C(C)C)NC(=O)[C@H](CCCNC(=N)N)NC(=O)[C@H](CC(N)=O)NC(=O)[C@@H]4CCCN4C(=O)[C@H](CSSC[C@H](NC(=O)[C@H](C)N)C(=O)N[C@@H](CCCCN)C(=O)NCC(=O)N[C@@H](C(C)C)C(=O)N[C@@H](Cc4ccccc4)C(=O)N[C@@H](CC(=O)O)C(=O)N[C@@H](C)C(=O)N3)NC2=O)C(=O)N[C@@H](CO)C(=O)N[C@@H](CC(=O)O)C(=O)N[C@@H](CCCCN)C(=O)N[C@@H](Cc2c[nH]cn2)C(=O)N[C@@H](CCCCN)C(=O)N[C@@H](Cc2c[nH]c3ccccc23)C(=O)N1)C(=O)O` [HwTx-I] (H-ACKGVFDACTPGKNECCPNRVCSDKHKWCKWKL-OH; disulfide 2-17, 9-22, 16-29; N-terminus and C-terminus assumed), for which, in assay [1], the “block of Nav1.7 inward current” value is listed as “incomplete block” and the Hill value worked out at 2.3. Further, the “time constant of inhibition (τ)” value in assay [1] (100 nM, mono-exponential fit (PhlTx1 n = 8)) was 492 s.

Turning to `CSCC[C@@H]1NC(=O)[C@H](Cc2ccc(O)cc2)NC(=O)[C@H](CCCNC(=N)N)NC(=O)[C@@H](NC(=O)[C@@H](N)CC(=O)O)CSSC[C@@H]2NC(=O)[C@@H]3CSSC[C@@H](C(=O)N[C@@H](C)C(=O)N[C@@H](Cc4c[nH]c5ccccc45)C(=O)N[C@@H](CC(=O)O)C(=O)N[C@@H](Cc4ccccc4)C(=O)N[C@H](C(=O)N[C@@H](Cc4ccccc4)C(=O)N[C@H](C(=O)O)[C@@H](C)O)[C@@H](C)O)NC(=O)[C@H](Cc4ccc(O)cc4)NC(=O)[C@H](CCCCN)NC(=O)[C@H](CCSC)NC(=O)[C@H](CCCCN)NC(=O)[C@H](CCCNC(=N)N)NC(=O)[C@H](CCCCN)NC(=O)[C@H](CSSC[C@H](NC(=O)[C@H](CC(=O)O)NC(=O)CNC(=O)[C@H](Cc4ccccc4)NC1=O)C(=O)N[C@@H](CCC(=O)O)C(=O)N[C@@H](CCCCN)C(=O)N[C@@H](CC(=O)O)C(=O)N[C@@H](CCC(=O)O)C(=O)N[C@@H](CC(=O)O)C(=O)N3)NC(=O)CNC(=O)[C@H](CC(C)C)NC(=O)[C@H](Cc1c[nH]cn1)NC(=O)[C@H](CCCCN)NC2=O` [Pn3a], in assay [1], the “block of Nav1.7 inward current” value was “fully insensitive” and the Hill value was determined as 3. The half-maximal inhibitory concentration (IC50) in assay [2] is 0.9 nM.

As to `CC(C)C[C@@H]1NC(=O)[C@H](Cc2c[nH]c3ccccc23)NC(=O)[C@H](Cc2ccc(O)cc2)NC(=O)[C@H](CCCNC(=N)N)NC(=O)[C@@H](NC(=O)[C@@H](N)CCC(=O)O)CSSC[C@@H]2NC(=O)[C@@H]3CSSC[C@@H](C(=O)N[C@H](C(=O)N[C@@H](Cc4c[nH]c5ccccc45)C(=O)N[C@@H](CC(=O)O)C(=O)NCC(=O)N[C@H](C(=O)N[C@@H](Cc4ccccc4)C(=O)N[C@@H](CO)C(=O)O)[C@@H](C)O)C(C)C)NC(=O)[C@H](Cc4c[nH]c5ccccc45)NC(=O)CNC(=O)[C@H](Cc4c[nH]cn4)NC(=O)[C@H](CCCNC(=N)N)NC(=O)[C@H](CCCNC(=N)N)NC(=O)[C@H](CO)NC(=O)[C@H](CSSC[C@H](NC(=O)CNC(=O)CNC1=O)C(=O)N[C@@H](CO)C(=O)N[C@@H](C)C(=O)NCC(=O)N[C@@H](CCC(N)=O)C(=O)N[C@@H]([C@@H](C)O)C(=O)N3)NC(=O)[C@H](C(C)C)NC(=O)[C@H](CC(C)C)NC(=O)[C@H](Cc1c[nH]cn1)NC(=O)[C@H](CCCCN)NC2=O` [ProTx-I], it took 7.1 nM to reach half-maximal inhibition in assay [1] (IC50).

For the compound `CN1CC[C@]23c4c5ccc(O)c4O[C@H]2[C@@H](O)C=C[C@H]3[C@H]1C5` [morphine, reference compound], the “formalin-induced pain behavior (licking), Phase II (inflammation, 10–45 min)” value in assay [3] was 0.
